Assay results taken from ChEMBL document CHEMBL4033609, “Naphthablins B and C, Meroterpenoids Identified from the Marine Sediment-Derived Streptomyces sp. CP26-58 Using HeLa Cell-Based Cytological Profiling” (J Nat Prod, 2017).
Activity calls are given as the source filed them. The calls are words filed in the database; no cut-off is given here.

Columns and labels:
HeLa [1] = assay: Cytotoxic activity against human HeLa cells at 0.295 uM by cytological profiling assay; type: functional, cell-based
HeLa [2] = assay: Cytotoxic activity against human HeLa cells at 1.47 uM by cytological profiling assay; type: functional, cell-based
HeLa [3] = assay: Growth inhibition of human HeLa cells at 33 uM; type: functional; conditions: read-out: GI
HeLa [4] = assay: Cytotoxic activity against human HeLa cells at 1.25 to 10 uM by cytological profiling assay; type: functional, cell-based
HeLa [5] = assay: Cytotoxic activity against human HeLa cells; type: functional, cell-based
HeLa [6] = assay: Cytotoxic activity against human HeLa cells at 1.91 uM by cytological profiling assay; type: functional, cell-based
HeLa [7] = assay: Cytotoxic activity against human HeLa cells at 0.382 uM by cytological profiling assay; type: functional, cell-based

C[C@H](CCC(=O)O)C[C@H](C)C[C@H](C)C(=O)/C=C(\O)[C@H](C)C[C@H](C)C/C=C/[C@@H](C)[C@@H](O)[C@@H](C)[C@@H](O)C[C@@H]1CC[C@@](C)([C@H]2CC[C@@](C)([C@@H](C)O)O2)O1
Activity (HeLa [1]): Active | Activity (HeLa [2]): Active

CCC(C)C(=O)O[C@H]1C[C@H]2[C@@H](C[C@H]1C)C1=C(OC2(C)C)C(=O)c2c(cc(O)c3c2O[C@@H]2[C@@H](O)OC[C@]32C)C1=O (some centres undefined)
inhibition of growth at 33 µM (HeLa [3]): 25%

CC(C)C(=O)O[C@H]1C[C@H]2[C@@H](C[C@H]1C)C1=C(OC2(C)C)C(=O)c2c(cc(O)c3c2O[C@@H]2[C@@H](O)OC[C@]32C)C1=O
inhibition of growth at 33 µM (HeLa [3]): 32%

C=CC(C)(CO)c1c(O)cc2c(c1O)C(=O)C1=C(C2=O)[C@@H]2C[C@@H](C)[C@@H](OC(=O)C(C)C)C[C@@H]2C(C)(C)O1 (some centres undefined)
inhibition of growth at 33 µM (HeLa [3]): 19%

CO[C@@H](C)[C@H]1C[C@H](C)[C@H]([C@@H](C)/C=C/[C@@H]2CC[C@@H](C)[C@H](/C(=C/[C@H]3CCC[C@@H](C)[C@@H]3[C@H](C)C(=O)C3=C(O)COC3=O)CO)O2)O1 [TETRONASIN 5930]
Activity (HeLa [4]): Active | IC50 (HeLa [5]): 230 nM

CNc1ccc2oc(C[C@H]3O[C@@]4(CC[C@H]3C)O[C@H]([C@H](C)C(=O)c3ccc[nH]3)[C@H](C)C[C@H]4C)nc2c1C(=O)O
Activity (HeLa [6]): Active | Activity (HeLa [7]): Active
